In general, NOAEL refers to the highest tested level that showed no adverse finding. For orientation: LOAEL means the lowest dose or exposure tested at which an adverse effect was seen.

The structures appear in SMILES notation.

Series [1] concerns Rattus norvegicus. The conditions noted are these: short-term, duration: 28 days, oral, gavage, CD(SD), Clinical Observation: Decreased locomotor activity Soiled fur Soft stool + Body Weight Changes: decrease + Food Consumption: decrease + ….
Series [2] deals with Rattus norvegicus. Conditions: short-term.
The subject of series [3] is Rattus norvegicus. Conditions: chronic, duration: 2 years, oral, diet, M/F.
Series [4] deals with Rattus norvegicus. Conditions: oral.
Series [5] deals with Rattus norvegicus. The conditions noted are these: oral; for LOAEL: subchronic, gavage, M.
The mark [6] stands for this setting: acute, duration: 1 hours, oral, gavage, M, inhibition of acetic acid-induced writhing response.
Where [7] appears, read: duration: 3 days, injection, subcutaneous, F, Sprague-Dawley, uterus: absolute blotted uterine weight.
The mark [8] stands for this setting: duration: 4 days, oral, gavage, F, Wistar, female reproductive system: vaginal cornification + uterus: uterine wet weight (relative).
[9] abbreviates: duration: 4 days, oral, gavage, F, Wistar, uterus: uterine dry weight (relative).
The mark [10] stands for this setting: duration: 10 days, oral, gavage, M, BrlHan:WIST, body weight + spontaneous locomotion.
The mark [11] stands for this setting: duration: 10 days, oral, gavage, M, BrlHan:WIST, male accessory sex gland: relative bulbourethral gland weight in the presence of TP.
Where [12] appears, read: duration: 28 days, oral, gavage, F, Crj:CD, kidney: kidney weight.
The mark [13] stands for this setting: duration: 28 days, oral, gavage, F, Crj:CD, liver: liver weight + thymus: serum T3.
Setting [14] is: duration: 28 days, oral, gavage, M, Crj:CD, body weight + brain: brain weight + food consumption + liver: liver weight + testis: testes weight + thymus: serum T3 + thymus: serum T4 + ….
[15] abbreviates: glomerulonephritis, atrophic testes, eye keratitis reduced body weight and organ weight.
[16] abbreviates: RBC, ChE inhibition + reduced hemoglobin, hematocrit and RBCs.

For `Oc1ccc(Cc2ccc(O)cc2)cc1` [Bis(4-hydroxyphenyl)methane], the NOEL in the series with Rattus norvegicus [1] (F) is < 20 mg/kg-day; in the series on Rattus norvegicus [1] (M), 20 mg/kg-day; in the series on Mus musculus (setting [6]) it was 12.5 mg/kg-day; in the series with Rattus norvegicus [2] (setting [7]) it was 20 mg/kg-day; in the series with Rattus norvegicus [2] (setting [8]), 50 mg/kg-day; in the series on Rattus norvegicus [2] (setting [9]), 100 mg/kg-day. The NOEL stood at 200 mg/kg-day in the series on Rattus norvegicus [2] (setting [10]); 1000 mg/kg-day with Rattus norvegicus [2] (duration: 10 days, oral, gavage, M, BrlHan:WIST, body weight in the presence of TP + body weight the absence of TP + male accessory sex gland: relative bulbourethral gland weight in the …); 1000 mg/kg-day in the series with Rattus norvegicus [2] (duration: 10 days, oral, gavage, M, BrlHan:WIST, male accessory sex gland: BC/LA weight (relative) + male accessory sex gland: Cowper's gland weight (relative) + male accessory sex gland: …); 50 mg/kg-day with Rattus norvegicus [2] (setting [11]); 20 mg/kg-day in the series on Rattus norvegicus [2] (setting [12]); 100 mg/kg-day with Rattus norvegicus [2] (setting [13]). For the same compound, the NOEL in the series with Rattus norvegicus [2] (setting [14]) is 100 mg/kg-day. Further, the LOEL in the series with Mus musculus (acute, duration: 1 hours, dermal, M, inhibition of arachidonic acid-induced ear edema) was 0.25 mg/ear; in the series with Mus musculus (setting [6]) it was 25 mg/kg-day; in the series on Rattus norvegicus [2] (duration: 3 days, injection, subcutaneous, F, Crj:CD, uterus: uterine dry weight (absolute) + uterus: uterine dry weight (relative) + uterus: uterine wet weight (absolute) + uterus: uterine wet …), 100 mg/kg-day; with Rattus norvegicus [2] (setting [7]) it was 200 mg/kg-day; in the series with Rattus norvegicus [2] (setting [8]), 100 mg/kg-day; with Rattus norvegicus [2] (setting [9]), 200 mg/kg-day. The LOEL with Rattus norvegicus [2] (duration: 5 days, injection, subcutaneous, F, Wistar, uterus: uterine dry weight (relative)) was 0.5 mg/day; in the series with Rattus norvegicus [2] (setting [10]) it was 1000 mg/kg-day; in the series with Rattus norvegicus [2] (setting [11]), 200 mg/kg-day; with Rattus norvegicus [2] (duration: 28 days, oral, gavage, F, Crj:CD, body weight + brain: brain weight + food consumption + thymus: serum T4), 20 mg/kg-day; in the series with Rattus norvegicus [2] (setting [12]), 100 mg/kg-day; in the series on Rattus norvegicus [2] (setting [13]), 500 mg/kg-day. The LOEL in the series on Rattus norvegicus [2] (setting [14]) came to 500 mg/kg-day.
`Cn1cc(-c2ccccc2)c(=O)c(-c2cccc(C(F)(F)F)c2)c1` [1-Methyl-3-phenyl-5-(3-(trifluoromethyl)phenyl)-4-pyridone] yielded an LEL in the series on Rattus norvegicus [3] (setting [15]) of 25 mg/kg-day. In addition, the NOEL with Rattus norvegicus [3] (setting [15]) amounted to 8 mg/kg-day; with Rattus norvegicus [4] (chronic, duration: 2 years, diet, Kidney: Glomerulonephritis + Organs: Decreased weight + Testis: Atrophy + Whole body: Decreased weight), 15.6 mg/kg-day.
On to `CCOP(=S)(OCC)Oc1cc(Cl)c(SC)cc1Cl` [Chlorthiophos], for which, in the series with Rattus norvegicus [4] (chronic, duration: 2 years, diet, None Observed), the NOAEL was found to be 0.08 mg/kg-day.
With `Brc1ccc(Oc2ccc(Br)cc2Br)c(Br)c1` [2,2',4,4'-Tetrabromodiphenyl ether], the LOAEL with Rattus norvegicus [5] (duration: 8 weeks, Sprague-Dawley, reproductive) is 0.001 mg/kg-day. In addition, the LOEL in the series with Mus musculus (developmental, oral, M/F, C57BL/6, generation: F1, F1: Morris water maze (swim speed, first trial) + F1: Morris water maze (swim speed, last trial) + F1: Morris water maze (swim speed, middle…) is 1 mg/kg-day; in the series on Mus musculus (reproduction developmental, oral, F, C57BL/6, generation: P0, P0: Morris water maze (latency, first trial)), 0.03 mg/kg-day.
Take `Oc1ccccc1` [Phenol]: the NOAEL in the series on Rattus norvegicus [4] (developmental, gavage, Fetus: Decreased weight) was determined as 60 mg/kg-day.
With `COP(=S)(OC)Oc1ccc([N+](=O)[O-])cc1` [Methyl parathion], in the series on Rattus norvegicus [3] (setting [16]), the LEL stood at 0.25 mg/kg-day and the NOEL amounted to 0.025 mg/kg-day. Besides, the NOAEL in the series on Rattus norvegicus [5] (chronic, duration: 28 months, diet, M/F, Sprague-Dawley, hematological) came out at 0.025 mg/kg-day. In addition, the LOAEL with Rattus norvegicus [5] (duration: 13 weeks, Wistar, neurological) amounted to 0.22 mg/kg-day. Also, the NOAEL in the series on Rattus norvegicus [4] (subchronic, duration: 90 days, diet, Erythrocytes: Cholinesterase inhibition) stood at 0.24 mg/kg-day.

The values above are taken from EPA's ToxValDB 9.5.
